In patent US7842695B2, “Substituted pyrazole compounds” (Merck Patent GmbH, priority 2003, dated 2010):

Assays:
5 HT2C receptor = target: T1, 5 HT2C receptor (Homo sapiens, UniProt P28335); assay: affinity to the 5 HT2C receptor; type: binding
T1 sequence (P28335 33-458): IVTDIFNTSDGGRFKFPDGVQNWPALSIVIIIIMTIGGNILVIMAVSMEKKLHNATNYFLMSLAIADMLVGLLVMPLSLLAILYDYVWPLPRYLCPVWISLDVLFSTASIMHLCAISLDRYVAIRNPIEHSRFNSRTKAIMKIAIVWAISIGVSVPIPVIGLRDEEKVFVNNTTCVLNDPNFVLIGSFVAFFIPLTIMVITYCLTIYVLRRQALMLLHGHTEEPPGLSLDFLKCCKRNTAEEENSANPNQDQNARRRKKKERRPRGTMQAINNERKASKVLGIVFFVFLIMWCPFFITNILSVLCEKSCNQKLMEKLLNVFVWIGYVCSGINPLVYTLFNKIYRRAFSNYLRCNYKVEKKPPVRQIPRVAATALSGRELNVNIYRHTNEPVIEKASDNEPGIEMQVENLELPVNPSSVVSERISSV

5-HT2A receptors = 5-HT2A receptors (UniProt P14842); assay: in-vitro affinity to 5-HT2A receptors, [3H]ketanserine displacement (Example A1); type: binding
From the text: The 5-HT2A receptors are exposed both to [^3H]ketanserine (a substance known for its affinity to the receptor) and also to the test compound. The decrease in the affinity of [^3H]ketanserine to the receptor is an indication of the affinity of the test substance to the 5-HT2A receptor.

COc1ccccc1-c1c(CN2CCN(C)CC2)cnn1-c1ccc(-c2cc(F)ccc2F)cc1 [Example 660, 1-[1-(2′,5′-Difluorobiphenyl-4-yl)-5-(2-methoxyphenyl)-1H-pyrazol-4-ylmethyl]-4-methylpiperazine]
IC50 (5 HT2C receptor): 630 nM | IC50 (5-HT2A receptors): 77 nM

CN1CCN(Cc2cnn(-c3ccc(-c4ccncc4)cc3)c2-c2ccccc2F)CC1 [Example 661, 1-[5-(2-Fluorophenyl)-1-(4-pyridin-4-ylphenyl)-1H-pyrazol-4-ylmethyl]-4-methylpiperazine]
IC50 (5 HT2C receptor): 1000 nM | IC50 (5-HT2A receptors): 77 nM
